Results taken from PMC3798069 (Journal of medicinal chemistry, 2012).
Marks after values point to notes of the source that are not given here.

Assays:
Assay type in all cases: cell-based
wild-type CqsS = wild-type CqsS (Vibrio cholerae serotype O1, UniProt Q9KM66); conditions: for maximal % response at the maximum concentration tested: at 50,000 nM, with respect to CAI-1 = 100%; for QS activity (in words): tested up to 50,000 nM
CqsS C170Y = CqsS C170Y (Vibrio cholerae serotype O1, UniProt Q9KM66, C170Y); assay: Light-based agonist bioassay with CqsS C170Y mutant strain; conditions: at 50,000 nM
CqsS C170A = CqsS C170A (Vibrio cholerae serotype O1, UniProt Q9KM66, C170A); assay: Light-based agonist bioassay with CqsS C170A mutant strain

CCOCCOCCOC(=O)C(O)CC (stereo not shown) [compound 23, 2-Hydroxy-2-(2-ethoxyethoxy)ethylbutanoate]
maximal % response at the maximum concentration tested (wild-type CqsS): 31 ^c % | QS activity (in words) (wild-type CqsS): only minimal QS activity

CCCCCOCCOC(=O)C(O)CC (stereo not shown) [compound 22, 2-(Pentyloxy)ethyl 2-hydroxybutanoate]
fold less active (higher EC50) than C8-ester-CAI-1 (9) (wild-type CqsS): > 13 fold

CCCCCCCCO [1-octanol]
QS activity (in words) (wild-type CqsS): no QS activity

CC/C=C/CCCCOC(=O)C(O)CC (stereo not shown) [compound 34, (E)-Oct-5-enyl 2-hydroxybutanoate]
fold less active (higher EC50) than C8-ester-CAI-1 (9) (wild-type CqsS): > 4 fold

CCCCCCCCCCOC(=O)C(O)CC (stereo not shown) [compound 21, Decyl 2-hydroxybutanoate]
fold less active (higher EC50) than C8-ester-CAI-1 (9) (wild-type CqsS): greater than 4 fold

CCC(O)C(=O)OCCCCCc1ccccc1 (stereo not shown) [compound 38, 5-Phenylpentyl 2-hydroxybutyrate]
maximal % response at the maximum concentration tested (CqsS C170Y): 19 ^c %

CCc1ccccc1CCCOC(=O)C(O)CC (stereo not shown) [compound 49, 3-(o-Ethyl-phenyl)propyl 2-hydroxybutyrate]
fold less active (higher EC50) than C8-ester-CAI-1 (9) (wild-type CqsS): > 278 fold | maximal % response at the maximum concentration tested (wild-type CqsS): 28 ^c % | QS activity (in words) (wild-type CqsS): very weak responses

CCC/C=C/CCCOC(=O)C(O)CC (stereo not shown) [compound 32, (E)-Oct-4-enyl 2-hydroxybutanoate]
fold less active (higher EC50) than C8-ester-CAI-1 (9) (wild-type CqsS): 1.5 fold

CCCCCCCOC(=O)C(O)CC (stereo not shown) [compound 19, Heptyl 2-hydroxybutanoate]
fold less active (higher EC50) than C8-ester-CAI-1 (9) (wild-type CqsS): 2 fold

CCCCCCCCCOC(=O)C(O)CC (stereo not shown) [compound 20, Nonyl 2-hydroxybutanoate]
fold more active (lower EC50) than C8-ester-CAI-1 (9) (wild-type CqsS): 2 fold

CCCCCCCCCC(=O)[C@@H](O)CC [compound 1, S-3-hydroxytridecan-4-one, reference compound]
maximal % response at the maximum concentration tested (CqsS C170Y): 20 ^c % | % Response (percent maximal bioluminescence) (CqsS C170A; with respect to CAI-1 set at 100%): 100±44%

CCCCC/C=C/COC(=O)C(O)CC (stereo not shown) [compound 26, (E)-Oct-2-en-1-yl 2-hydroxybutanoate]
fold more active (lower EC50) than C8-ester-CAI-1 (9) (wild-type CqsS): 3 fold

CCC(O)C(=O)O (stereo not shown) [2-hydroxybutyric acid]
QS activity (in words) (wild-type CqsS): no QS activity

CCCCOC(=O)C(O)CC (stereo not shown) [compound 17, Butyl 2-hydroxybutanoate]
maximal % response at the maximum concentration tested (wild-type CqsS): 23 ^c % | QS activity (in words) (wild-type CqsS): nearly complete loss of QS activity

CCCC/C=C/CCOC(=O)C(O)CC (stereo not shown) [compound 29, (E)-Oct-3-en-1-yl 2-hydroxybutanoate]
fold less active (higher EC50) than C8-ester-CAI-1 (9) (wild-type CqsS): > 4 fold

CCCCCCOCCOC(=O)C(O)CC (stereo not shown) [compound 24, 2-(Hexyloxy)ethyl 2-hydroxybutanoate]
fold less active (higher EC50) than C8-ester-CAI-1 (9) (wild-type CqsS): > 13 fold

CCCCCCCCOC(=O)C(O)CC (stereo not shown) [compound 9, Octyl 2-hydroxybutanoate]
maximal % response at the maximum concentration tested (CqsS C170Y): 66 ^c %

CCC(O)C(=O)OCCCCc1ccccc1 (stereo not shown) [compound 37, 4-Phenylbutyl 2-hydroxybutyrate]
maximal % response at the maximum concentration tested (CqsS C170Y): 22 ^c % | maximal % response at the maximum concentration tested (CqsS C170A; at 50,000 nM): 16 ^c %

CCCCc1ccccc1COC(=O)C(O)CC (stereo not shown) [compound 44, 1-(o-Butyl-phenyl)methyl 2-hydroxybutyrate]
fold less active (higher EC50) than C8-ester-CAI-1 (9) (wild-type CqsS): > 278 fold | QS activity (in words) (wild-type CqsS): very weak responses

CCCCCCOC(=O)C(O)CC (stereo not shown) [compound 18, Hexyl 2-hydroxybutanoate]
fold less active (higher EC50) than C8-ester-CAI-1 (9) (wild-type CqsS): greater than 4 fold

CCCCCc1cccc(COC(=O)C(O)CC)c1 (stereo not shown) [compound 46, 1-(m-Pentyl-phenyl)methyl 2-hydroxybutyrate]
fold less active (higher EC50) than C8-ester-CAI-1 (9) (wild-type CqsS): > 9 fold
